Reference: US9593305B2, “Differentiation of pluripotent stem cells” (Janssen Biotech, Inc., priority 2008, dated 2017)

Key:
[1] = tested on: H1 human embryonic stem cells; test: Analog screening with GDF-8 and growth factor/agonist pool (Example 8, Tables 7 and 8); type: cell-based
Procedure: Briefly, clusters of H1 human embryonic stem cells were grown on reduced growth factor […]™ (Invitrogen; Cat #356231)-coated tissue culture plastic. Cells were passaged using collagenase (Invitrogen; Cat #17104-019) treatment and gentle scraping, washed to remove residual enzyme, and plated with even dispersal at a ratio of 1:1 (surface area) on reduced growth factor […]™-coated 96-well black plates (Packard ViewPlates; PerkinElmer; Cat #6005182) using volumes of 100 μl/well. Cells were allowed to attach as clusters and then recover log phase growth over a 1 to 3 day period, feeding daily with MEF conditioned medium supplemented with 8 ng/ml bFGF (R&D Systems; Cat #233-FB). Plates were maintained at 37° C., 5% CO2 in a humidified box throughout the duration of assay. Growth factors purchased from R&D Systems were EGF (Cat #236-EG), FGF4 (Cat #235-F4), PDGF-A (Cat #221-AA), PDGF-D (Cat #1159-SB), PDGF-A/B (Cat #222-AB). […] Screening was conducted using a library of compounds that were made available as 5 mM stocks in 96-well plate format, solubilized in 100% DMSO (Sigma; Cat #D2650) and stored at −80° C. The compounds were further diluted to an intermediate concentration of 0.2 mM in 50 mM HEPES (Invitrogen; Cat #15630-080), 20% DMSO and stored at 4° C. Test conditions were performed in single wells, feeding on alternate days over a four-day assay period. Primary screening assays were initiated by aspirating culture medium from each well followed by three washes in PBS (Invitrogen; Cat #14190) to remove residual growth factors and serum. On the first day of assay, test volumes of 200 μl per well were added back containing DMEM:F12 base medium (Invitrogen; Cat #11330-032) supplemented with 0.5% FCS (HyClone; […] Cat #1324-WN) plus 2.5 μM compound. All remaining growth factors were tested at a final assay concentration of 50 ng/ml (EGF, FGF4, PDGF-A, PDGF-A/B, VEGF) with the exception of GDF-8 tested at 25 ng/ml. […] Cat #120-14). […] All remaining growth factors were tested at a final assay concentration of 50 ng/ml (EGF, FGF4, PDGF-A, PDGF-A/B, VEGF) with the exception of GDF-8 tested at 25 ng/ml. […] Cat #120-14). Negative control samples contained DMEM:F12 base medium supplemented with 2% FCS. […] At the conclusion of four-days of culture, assay plates were washed twice with PBS (Invitrogen; Cat #14190), fixed with 4% paraformaldehyde (Alexis Biochemical; Cat #ALX-350-011) at room temperature for 20 minutes, then washed three times with PBS and permeabilized with 0.5% Triton X-100 (Sigma; Cat #T8760-2) for 20 minutes at room temperature. Cells were washed again three times with PBS and blocked with 4% chicken serum (Invitrogen; Cat #16110082) in PBS for 30 minutes at room temperature. Primary antibody (goat anti-human SOX17; R&D Systems; Cat #AF1924) was diluted 1:100 in 4% chicken serum and added to each well for one hour at room temperature. Alexa Fluor 488 conjugated secondary antibody (chicken anti-goat IgG; Molecular Probes; Cat #AZ1467) was diluted 1:200 in PBS and added to each sample well after washing three times with PBS. To counterstain nuclei, 4 μg/ml Hoechst 33342 (Invitrogen; Cat #H3570) was added for ten minutes at room temperature. Plates were washed once with PBS and left in 100 μl/well PBS for imaging. Imaging was performed using an IN Cell Analyzer 1000 (GE Healthcare) utilizing the 51008bs dichroic for cells stained with Hoechst 33342 and Alexa Fluor 488. Exposure times were optimized from positive control wells and from untreated negative control wells stained with secondary antibody alone. Images from 15 fields per well were acquired to compensate for any cell loss during the bioassay and subsequent staining procedures. […] Segmentation for the nuclei was determined based on gray-scale levels (baseline range 100-300) and nuclear size. Averages and standard deviations were calculated for each replicate data set. […]

[2] = tested on: H1 human embryonic stem cells; test: Analogue screening in combination with only GDF-8, SOX17 (Example 21, Tables 18 and 19); type: cell-based; design: Sox17 Expression: % of positive control / Cell Number: % of positive control: tested at 2.5 µM; settings: compound in combination with GDF8; for Cell Number: Average Total Cell Number / Sox17 Expression: Average Total Intensity: four assay plates; for Cell Number: % of positive control / Sox17 Expression: % of positive control: relative to Activin A/Wnt3a of the same plate
Procedure: Briefly, clusters of H1 human embryonic stem cells were grown on reduced growth factor Matrigel™ (Invitrogen; Cat #356231)-coated tissue culture plastic. Cells were passaged using collagenase (Invitrogen; Cat #17104-019) treatment and gentle scraping, washed to remove residual enzyme, and plated with even dispersal at a ratio of 1:1 (surface area) on reduced growth factor […]™ (BD Biosciences; Cat #356231)-coated 96-well black plates (Packard ViewPlates; PerkinElmer; Cat #6005182) using volumes of 100 μl/well. Cells were allowed to attach and then recover log phase growth over a 1 to 3 day time period, feeding daily with MEF conditioned medium supplemented with 8 ng/ml bFGF (R&D Systems; Cat #233-FB). Plates were maintained at 37° C., 5% CO2 in a humidified box throughout the duration of assay.
Screening was conducted using a library of the analogue compounds. Compounds from this library were made available as 5 mM stocks in 96-well plate format, solubilized in 100% DMSO (Sigma; Cat #D2650) and stored at −80° C. The library compounds were further diluted to an intermediate concentration of 0.2 mM in 50 mM HEPES (Invitrogen; Cat #15630-080), 20% DMSO and stored at 4° C. Test conditions were performed in triplicate, feeding on alternating days over a four-day assay period. Assays were initiated by aspirating culture medium from each well followed by three washes in PBS (Invitrogen; Cat #14190) to remove residual growth factors. On the first day of assay, test volumes of 200 μl per well were added to each well using DMEM:F12 base medium (Invitrogen; Cat #11330-032) supplemented with 0.5% FCS (HyClone; Cat #SH30070.03) and 200 ng/ml GDF-8 (R&D Systems, Cat #788-G8) plus 2.5 μM compound. On the third day of assay, test volumes of 100 μl per well were added to each well using DMEM:F12 base medium supplemented with 2% FCS plus 200 ng/ml GDF-8 (R&D Systems, Cat #788-G8). Positive control samples contained the same base medium supplemented with FCS and 1000 ng/ml recombinant human activin A (PeproTech; Cat #120-14) throughout the four-day assay along with Wnt3a (20 ng/ml) on days 1 and 2. Negative control samples contained DMEM:F12 base medium supplemented with FCS, adding Wnt3a on days 1 and 2 but omitting treatment with activin A.
At the conclusion of four-days of culture, assay plates were washed twice with PBS (Invitrogen; Cat #14190), fixed with 4% paraformaldehyde (Alexis Biochemical; Cat #ALX-350-011) at room temperature for 20 minutes, then washed three times with PBS and permeabilized with 0.5% Triton X-100 (Sigma; Cat #T8760-2) for 20 minutes at room temperature. Cells were washed again three times with PBS and blocked with 4% chicken serum (Invitrogen; Cat #16110082) in PBS for 30 minutes at room temperature. Primary antibody (goat anti-human SOX17; R&D Systems; Cat #AF1924) was diluted 1:100 in 4% chicken serum and added to each well for one hour at room temperature. Alexa Fluor 488 conjugated secondary antibody (chicken anti-goat IgG; Molecular Probes; Cat #AZ1467) was diluted 1:200 in PBS and added to each sample well after washing three times with PBS. To counterstain nuclei, 4 μg/ml Hoechst 33342 (Invitrogen; Cat #H3570) was added for ten minutes at room temperature. Plates were washed once with PBS and left in 100 μl/well PBS for imaging.
Imaging was performed using an IN Cell Analyzer 1000 (GE Healthcare) utilizing the 51008bs dichroic for cells stained with Hoechst 33342 and Alexa Fluor 488. Exposure times were optimized from positive control wells and from untreated negative control wells stained with secondary antibody alone. Images from 15 fields per well were acquired to compensate for any cell loss during the bioassay and subsequent staining procedures. Measurements for total cell number and total SOX17 intensity were obtained from each well using IN Cell Developer Toolbox 1.7 (GE Healthcare) software. […]

[3] = Plate 1, compound + EGF, FGF, PDGF-A, VEGF, PDGF-D, muscimol, GDF8
[4] = Plate 1, compound + EGF, FGF, PDGF-A, VEGF, PDGF-D, muscimol, GDF8, positive control Activin A/Wnt3a
[5] = Table 8: hits with greater than 25% activity of the positive control, with GDF-8 and growth factors/agonists

SMILES	Cell Number, Average Total Cell Number [1, 3]	Sox17 Expression, Average Total Intensity [1, 3]	Cell Number, % of positive control [1, 4]	Sox17 Expression, % of positive control [1, 4]	Cell Number, % of positive control [1, 5]	Sox17 Expression, % of positive control [1, 5]	Sox17 Expression, Average Total Intensity [1, 5]	Cell Number: Average Total Cell Number [2]	Sox17 Expression: Average Total Intensity [2]	Cell Number: % of positive control [2] [%]	Sox17 Expression: % of positive control [2] [%]
CCN1CCCc2cccc(c2)-c2ncnc(n2)Nc2ccccc2CNC(=O)C1 [Compound 32, 15-Ethyl-13,14,15,16,18,19-hexahydro-1H-6,2-(azeno)-7,11-(metheno)-1,3,5,15,18-benzopentaazacyclohenicosin-17(12H)-one]	8066	9.29E+07	60.2 % of positive control	37.1 % of positive control	60.2 % of positive control	37.1 % of positive control	9.29E+07	4338	3.63E+07	28.9	10.5
O=C1NCCc2cccc(c2)Nc2ncnc(n2)-c2cccc(c2)CCCN2CCC1CC2 [Compound 31, 1,11,13,15,23,31-Hexaazapentacyclo[23.2.2.1˜5,9˜0.1˜10,14˜0.1˜16,20˜]dotriaconta-5(32), 6,8,10(31), 11,13,16(30), 17,19-nonaen-24-one]	6957	6.59E+07	51.9 % of positive control	26.3 % of positive control	51.9 % of positive control	26.3 % of positive control	6.59E+07	3619	1.36E+07	24.1	3.9
O=C1CCN2CCN(CC2)Cc2cc(Cl)cc(c2)Nc2ncnc(n2)-c2ccc(F)c(c2)CCCN1 [Compound 24, 5-Chloro-17-fluoro-1,8,10,12,22,26,32-heptaazapentacyclo[24.2.2.1˜3,7˜0.1˜9,13˜0.1˜14,18˜]tritriaconta-3(33), 4,6,9(32), 10,12,14(31), 15,17-nonaen-23-one]	12714	2.46E+08	94.9 % of positive control	98.2 % of positive control	94.9 % of positive control	98.2 % of positive control	2.46E+08	5012	2.64E+07	33.4	7.7
O=C1NCCCc2cc(ccc2F)-c2ncnc(n2)Nc2cc(Cl)cc(c2)CN2CCCC1C2 (centres unmarked) [Compound 26, 10-Chloro-25-fluoro-3,5,7,14,20,31-hexaazapentacyclo[22.3.1.1˜2,6˜0.1˜8,12˜0.1˜14,18˜]hentriaconta-1(28), 2(31), 3,5,8(30), 9,11,24,26-nonaen-19-one]	7415	8.30E+07	55.4 % of positive control	33.1 % of positive control	55.4 % of positive control	33.1 % of positive control	8.30E+07	4896	1.65E+07	32.6	4.8
